Laboratory results published in patent publication EP4417616A1, “LXR ANTAGONISTS” (Ospedale San Raffaele S.r.l., priority 2023, dated 2024).
“Also recorded” adds a separate entry of the source. Each block holds one molecule with its values, some of them ahead of it.

How the values were obtained:
LXRα = target: T1, LXRα (Homo sapiens, UniProt Q13133); assay: Luciferase-based reporter assay for LXRα transcriptional activity (HEK293, Gal4-LXRα); type: cell-based; settings: for antagonism of LXRα activation induced by 22R-HC: 22R-HC 5 or 10 µM, titrating amounts of compound (1-50 µM)
T1 construct: expressed in transfected cells; host or cells: HEK293
T1 sequence (Q13133 1-447): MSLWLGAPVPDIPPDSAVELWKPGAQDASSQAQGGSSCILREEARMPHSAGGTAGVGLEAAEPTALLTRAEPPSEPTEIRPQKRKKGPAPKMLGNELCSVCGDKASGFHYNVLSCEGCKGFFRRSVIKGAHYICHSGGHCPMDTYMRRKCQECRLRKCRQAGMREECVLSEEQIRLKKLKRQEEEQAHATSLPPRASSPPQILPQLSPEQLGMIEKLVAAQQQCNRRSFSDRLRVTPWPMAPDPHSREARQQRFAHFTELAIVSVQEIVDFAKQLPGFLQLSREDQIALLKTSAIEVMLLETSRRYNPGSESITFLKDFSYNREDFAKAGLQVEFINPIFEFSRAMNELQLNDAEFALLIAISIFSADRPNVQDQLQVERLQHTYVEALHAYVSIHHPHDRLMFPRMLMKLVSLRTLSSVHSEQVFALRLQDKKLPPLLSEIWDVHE
Experimental: Reporter assay for nuclear receptor transcriptional activity. Human embryonic Kidney 293 cells (American Type Culture Collection) were cultured in Dulbecco's Modified Eagle's medium containing 10% of fetal bovine serum at 37°C in humidified atmosphere of 5% CO2. HEK293 cells (4×10^4 cells per well) were transiently transfected in 48 well plate with the reporter plasmids pMH100X4-TK-luc (100 ng/300µl), Renilla (22 ng/300µl) together with 100 ng/300µl of pCMX-Gal4-LXRα or pCMX-Gal4-LXRβ plasmids using X-tremeGENE 9 DNA Transfection Reagent (Roche). Six hours after transfection, the cells were treated with the appropriate compound for 24 hours. Luciferase activities were analyzed by luciferase Dual Reporter Assay Systems (Promega) according to the manufacturer's protocol. GAL4-LXRs, and TK-MHC100-luc plasmids were described in^7. […] Six hours after transfection, the cells were treated with the appropriate compound for 40 hours. Luciferase activity was analyzed as described above and protein content spectrophotometrically using Coomassie Plus Protein assay reagent (Thermo Scientific). Quantitative Real-Time-PCR. U937 cell line was differentiated in foam macrophages with phorbol 12-myristate 13-acetate (PMA) 10 ng/ml (Sigma) for 72 hours at 37°C in RPMI 10% FBS. At day 3 T0901317 (10 µM) or different amount of PFM037 (50, 25 and 10 µM) were added for 16 hours. Total RNA was purified by TRIZOL (Invitrogen). Reverse transcription was performed by MLV-reverse transcriptase (Promega). QPCR was performed using SYBR Green Master Mix (Applied Biosystems) and real-time PCR (Viia 7 Real Time PCR System, Applied Biosystems). PCR reactions were done in triplicate.

LXRβ-LBD = target: T2, LXRβ-LBD (Homo sapiens, UniProt P55055); assay: Mammalian two-hybrid assay, RAP250-Del4 with pVP16-LXRβ-LBD; type: cell-based; settings: ligand alone, 10 µM; Huh7 cells
T2 construct: expressed in transfected cells; host or cells: Huh7 (printed 'Hhu7') human liver cell line
T2 sequence (P55055 222-460 limits assumed): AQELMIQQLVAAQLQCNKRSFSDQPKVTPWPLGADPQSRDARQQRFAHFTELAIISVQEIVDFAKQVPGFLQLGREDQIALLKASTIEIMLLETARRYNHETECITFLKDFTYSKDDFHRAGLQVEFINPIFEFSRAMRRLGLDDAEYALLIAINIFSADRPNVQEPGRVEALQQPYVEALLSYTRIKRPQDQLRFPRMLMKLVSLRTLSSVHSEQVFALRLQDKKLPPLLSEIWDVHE

LXRα-LBD = target: T3, LXRα-LBD (Homo sapiens, UniProt Q13133); assay: Mammalian two-hybrid assay, RAP250-Del4 with pVP16-LXRα-LBD; type: cell-based; settings: ligand alone, 10 µM; Huh7 cells
T3 construct: expressed in transfected cells; host or cells: Huh7 (printed 'Hhu7') human liver cell line
T3 sequence (Q13133 209-447 limits assumed): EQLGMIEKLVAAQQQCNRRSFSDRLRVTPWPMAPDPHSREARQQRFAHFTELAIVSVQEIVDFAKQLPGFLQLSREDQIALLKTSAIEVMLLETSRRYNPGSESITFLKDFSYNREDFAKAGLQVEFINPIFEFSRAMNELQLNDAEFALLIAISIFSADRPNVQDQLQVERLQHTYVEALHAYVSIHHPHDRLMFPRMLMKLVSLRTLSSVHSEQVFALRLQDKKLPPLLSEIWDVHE

[1] = tested on: Lewis Lung Carcinoma (LLC); assay: Treatment of LLC tumor-bearing mice; type: in vivo
Description: Tumor challenge experiments.

LLC tumor cells = assay: In vitro growth of LLC tumor cells; type: cell-based, mouse; settings: compared with vehicle
RMA lymphoma = assay: Treatment of RMA tumor-bearing mice; settings: 300 µg i.v. 5 days/week
Experimental: Analysis of tumor infiltrating cells by flow cytometry. […] Tumors collected 7, 10, 12 or 14 days after injection were cut into small fragments and digested with Liberase TL (66 µg/ml, Roche) and DNAse I (150 µg/ml, Roche) for 25-30 minutes at 37 °C. Digested tissues were filtered by using a 75 µm diameter cell strainer. Single cell suspensions were stained with Live/Dead Violet kit reagents (Molecular Probes) for 30 minutes at 4°C. After washing, the cells were incubated for 5-10 minutes at RT with Fc-blocking solution (Anti-CD16/32, 10 µg/ml mouse Fc Block, BD) and then stained with various antibodies incubated at 4°C for 20 minutes. […] CD209a (5H10), CCR7 (4b12) and F4/80 (BM8) were from eBioscience. Rat IgG, Rat IgG2a, Rat IgG2b, Rat IgM and Hamster isotype control mAbs were used as controls (Biolegends and BD Biosciences). For intracellular staining, cells were incubated with PMA (100 ng/ml) and ionomycin (500 ng/ml) in the presence of 10 µg/ml of Brefeldin for 4 hours. Cells were then fixed using the IC Fixation buffer (eBioscience), permeabilized with 1x Permeabilization buffer (eBiosciences) and stained with anti-IFNy mAb. Samples were run by FACSCanto flow cytometer and analyzed by FlowJo software gating on live cells. FACS sorting was performed by using the FACSAria Fusion (BD)
Tumor challenge experiments. C57BL/6 mice were injected subcutaneously with LLC-Mock (1 ×10^6), LLC-SULT2B1b (1 ×10^6), RMA (2 ×10^5), or B16F1-OVA (2 ×10^5) tumor cells. […] Tumor size was evaluated by measuring perpendicular diameters by a caliper every 2-3 days. Data are reported as the average tumor volume ± SD. In selected experiments tumors were injected in Ccr2^-/-mice.
Treatment of tumor-bearing mice with LXR antagonists alone or with immunotherapy. Tumor-bearing mice were treated with 25-HC-3S or PFM037 6-7 days after tumor challenge. After 6-7 days, mice were randomly assigned to either treatment or vehicle groups. Mice were injected with 300 µg of either compound given i.v. for 5 days/week. […] B16F1-OVA-bearing mice were treated with 400 µg of PFM037 for 5 days/week. For controls of mAb experiments, mice were injected with 250 µg of rat IgG2a isotype control antibody. […] Tumors were collected and measured 14 days after tumor challenge.

[2] = LLC-bearing mice, 300 µg i.v. 5 days/week from day 6-7, vs vehicle

SMILES: CC(C)CC[C@H](O)[C@@H](C)[C@H]1CC[C@H]2[C@@H]3CC=C4C[C@@H](O)CC[C@]4(C)[C@H]3CC[C@]12C [22S-HC, 22S-hydroxycholesterol]
antagonism of LXRα activation induced by 22R-HC (LXRα): does not antagonize; also recorded: did not antagonize

luciferase activity (LXRβ-LBD): induced luciferase activity
luciferase activity (LXRα-LBD): induced luciferase activity
SMILES: CC(C)CC[C@@H](O)[C@@H](C)[C@H]1CC[C@H]2[C@@H]3CC=C4C[C@@H](O)CC[C@]4(C)[C@H]3CC[C@]12C [22R-HC]

SMILES: C[C@@H]([C@H]1CC[C@H]2[C@@H]3CC=C4C[C@@H](O)CC[C@]4(C)[C@H]3CC[C@]12C)[C@@H](O)Cc1ccccc1 [PFM046, (22S)-23-Phenyl-24-norchol-5-en-3β,22-diol]
tumor growth ([1]; established LLC tumors, 300 µg/mouse every other day, Fig. 24B): able to control LLC tumor growth; also recorded: controls tumor growth

SMILES: C[C@H](CCCC(C)(C)O)[C@H]1CC[C@H]2[C@@H]3CC=C4C[C@@H](OS(=O)(=O)O)CC[C@]4(C)[C@H]3CC[C@]12C [25-HC-3S, 25-Hydroxycholesterol-3-sulfate, reference compound]
absolute numbers of tumor-infiltrating mono-DCs [1, 2]: Higher
tumor growth [1, 2]: delay of tumor growth
in vitro growth of LLC tumor cells (LLC tumor cells): grew in a similar manner
IC50 (LXRα): 12.7 µM
antagonism of LXRα activation induced by 22R-HC (LXRα): antagonized the LXRα activity in a dose-dependent manner
numbers of tumor-infiltrating mono-DCs (RMA lymphoma): Higher
tumor growth (RMA lymphoma; tumor weight at sacrifice): tumor growth control
